Measurements as given in patent US20090305955A1, “Cyclopeptide with Anti-Cancer Activity Derived from Collagen Type IV” (priority 2006, published 2009).
Where a SMILES comes first, the peptide text is derived from it.

Assays:
t-PA = experiment: Zymography in the presence of gelatine and plasminogen, UACC-903 cells; assay type: cell-based, human; settings: cyclopeptide 5 to 20 μM, linear heptapeptide 20 μM
Experimental: (§1) FIG. 14: Effect of YSNSG (SEQ ID NO: 3) cyclopeptide on the secretion of plasminogen activators. The secretion of u-PA (urokinase type plasminogen activator) and t-PA (tissue plasminogen activator) was analyzed by zymography in the presence of gelatine and plasminogen (A) in a medium conditioned by control UACC-903 cells in the absence of peptide (negative control, white bar), on cells treated with linear heptapeptide CNYYSNS (SEQ ID NO: 5) (20 μM) (positive control, black bar) or treated with the cyclopeptide YSNSG (SEQ ID NO: 3) at a concentration varying from 5 μM to 20 μM (grey bars). The conditioned medium was recovered and analyzed as described in the methods.
(§2) To determine the plasminogen activities, conditioned media of UACC-903 cells were analyzed by polyacrylamide gel electrophoresis in the presence of SDS and containing 1 mg/ml of gelatine and 10 μg/ml of plasminogen. After electrophoresis, the gels were incubated overnight at ambient temperature in a 100 mM glycine, 5 mM EDTA, pH 8.0 buffer.

u-PA = experiment: as above; assay type: cell-based, human; settings: cyclopeptide 5 to 20 μM, linear heptapeptide 20 μM
Experimental: as §1, §2

MMP-14 = experiment: Western blot of proMMP-14 / MMP-14, UACC-903 cells; assay type: cell-based, human; settings: 20 μM
Experimental: FIG. 12: Effect of YSNSG (SEQ ID NO: 3) cyclopeptide on expression and activation of MMP-14. Expression of proMMP-14 (white bar) and MMP-14 (black bar) was studied by Western Blot (A) in a medium conditioned by UACC-903 cells in the absence of peptide (control), on cells treated with the linear heptapeptide CNYYSNS (SEQ ID NO: 5) (20 μm) or treated with the cyclopeptide YSNSG (SEQ ID NO: 3) at a concentration of 20 μM (cyclopeptide YSNSG (SEQ ID NO: 3)). The conditioned medium was recovered and analyzed as described in the methods. Quantification was carried out using Bio 1D software. (B);
(§3) The samples underwent 10% polyacrylamide gel electrophoresis in the presence of 0.1% SDS then were transferred onto Immobilon-P membranes (Millipore, St Quentin en Yvelines, France). The membranes were saturated with 5% freeze dried skimmed milk, Tween 20 0.1% in a 50 mM Tris-HCl, 150 mM NaCl buffer, pH 7.5 (TBS) for 2 hours at ambient temperature. The membranes were then incubated overnight at 4° C. with anti-MMP-14, anti-PAI-1 and anti-u-PAR antibodies then incubated for one hour at ambient temperature with a secondary antibody (anti-IgG) conjugated with peroxidase. The immune complexes were visualized with an ECL chemoluminescence detection kit.

[1] = system: UACC-903 human melanoma cells; experiment: In vitro proliferation test (Wst-1 reagent); assay type: cell-based; settings: 48 hours
Experimental: FIG. 9: In vitro proliferation test for human melanoma cells UACC-903 in the presence of the cyclopeptide YSNSG (SEQ ID NO: 3). The UACC-903 cells were incubated for 48 hours in 24-well plates, with a control medium (negative control, white bar), a linear heptapeptide CNYYSNS (SEQ ID NO: 5) (positive control, black bar) or concentrations of cyclopeptide YSNSG (SEQ ID NO: 3) varying from 5 μM to 20 μm (grey bars).
B16F1 cells, a metastasic sub-line of B16 murine melanoma pulmonary cells (d-Dr M Grégoire, INSERM U419, Nantes, France) were cultivated in RPMI 1640 medium, supplemented with 5% foetal calf serum (FCS) in 25 cm^2 flasks (Nunclon, VWR Int, Strasbourg, France) in a humid atmosphere containing 5% CO2. UACC-903 cells, a melanoma cell line (Dr J Trent, Phoenix, Ariz.) were cultivated in DMEM medium containing 4.5 g/l glucose, supplemented with 5% FCS in 25 cm^2 flasks (Nunclon) in a moist atmosphere containing 5% CO2. HMEC-1 cells (human microvascular entothelial cells; E W Ades, Center for Disease Control and Prevention, Atlanta, Ga.) and HUVEC cells (human umbilical vein endothelial cells) were cultivated in endothelial cell growth medium (ECGM) supplemented with ECGS/H at 0.4% (by weight), 2% (by volume) foetal calf serum, epidermal growth factor (EGF) 10 ng/ml, 1 μg/ml of hydrocortisone, 50 ng/ml of amphotericin B and 50 μg/ml of gentamicin.
Cell proliferation was determined using the reagent Wst-1 following the manufacturer's instructions. This reagent contains a tetrazolium salt which is reduced by mitochondrial oxido-reductases and allows the proliferation and viability of cells to be evaluated. Its reduction gives rise to a soluble formazan derivative which is yellow in colour. Before reaching confluence, the cells were washed twice with a saline solution buffered with phosphate (phosphate buffered saline; PBS) to remove SVF residues and incubated for 48 hours in DMEM medium, in the presence or absence of synthetic peptides at concentrations of 0 to 20 μM. The medium was recovered then centrifuged at 500 g for 10 min at 4° C. to remove cell debris. The protein contents of the medium obtained was determined using Bradford's method using SAB as the reference.

MT1-MMP = experiment: Western blot of proMMP-14 / MMP-14, HUVEC membrane extracts; assay type: cell-based, human; settings: 20 μM
Experimental: FIG. 19: Effect of YSNSG (SEQ ID NO: 3) cyclopeptide on expression and activation of MMP-14 by HUVEC cells. The expression of proMMP-14 and MMP-14 was studied by Western blot (A). The HUVEC cells were cultivated in the absence (control) or in the presence of 20 μM of YSNSG (SEQ ID NO: 3) cyclopeptide and the corresponding membrane extracts were analyzed. Quantification was carried out using Bio 1D software (B);
as §3

actin cytoskeleton = experiment: Labelling actin F (phalloidin), HUVEC cells; assay type: cell-based, human; settings: 20 μM, 48 h
Experimental: FIG. 22: Effect of YSNSG (SEQ ID NO: 3) cyclopeptide on the organization of the cytoskeleton of HUVEC cells. The cells were cultivated on glass slides in the absence (control) or in the presence of 20 μM of YSNSG (SEQ ID NO: 3) cyclopeptide. After 48 h of incubation, the cells were fixed, permeabilized, incubated with phalloidin (A) or with an anti-Phospho-FAK antibody (B) then with Hoechst-33342. The slides were observed under a confocal microscope;
The cells were seeded onto sterile glass slides placed in a 24-well plate (2×10^4 cells/well) in a suitable medium containing 5% of serum, in the presence or absence of the cyclopeptide YSNSG (SEQ ID NO: 3). After 24 and 48 hours incubation, the cells were fixed with 3.7% formaldehyde for 10 minutes at ambient temperature and permeabilized for 3 minutes with an acetone solution at −20° C. Three 5 minute washes in PBS were carried out, then the cells were incubated for 30 minutes at ambient temperature in a saturation solution (PBS containing 1% bovine serum albumin). The cells were then incubated for 1 hour with phalloidin coupled with Alexa Fluor® 568 (diluted 1/40 in PBS containing 1% BSA) then washed 3 times for 5 minutes with PBS.

Compound	secretion of t-PA (t-PA)	secretion of u-PA (u-PA)	activation of proMMP-14 (MMP-14)	expression of proMMP-14 (MMP-14)	In vitro proliferation of UACC-903 human melanoma cells, change vs control ([1]; linear heptapeptide positive control, concentration not given) [%]	reduction in the activation of MT1-MMP (MT1-MMP) [%]	organization of the actin cytoskeleton (actin cytoskeleton)	inhibited the proliferation of UACC-903 melanoma cells ([1]; 5 μM) [%]	inhibited the proliferation of UACC-903 melanoma cells ([1]; 10 μM) [%]	inhibited the proliferation of UACC-903 melanoma cells ([1]; 20 μM) [%]
CNYYSNS (Synthetic linear heptapeptide) [linear peptide NC1 [α3(IV) 185-191], the 7 N-terminal amino acids of the 185-203 domain; positive control, reference compound]	reduction observed	reduction observed	same intensity	same intensity	−45	–	–	–	–	–
NC(=O)CC1NC(=O)C(CO)NC(=O)C(Cc2ccc(O)cc2)NC(=O)CNC(=O)C(CO)NC1=O (centres unmarked) [cyclopeptide YSNSG, cyclopeptide YSNSG (SEQ ID NO: 3)] (cyclo(GYSNS); configuration not given here)	dose-dependent reduction	dose-dependent reduction	completely abolished	strongly inhibited	–	56	modification	27	29	40
